“Also recorded” adds a separate entry of the source.

The subject of experiment [1] is mutant-containing thin filaments. Kind of experiment: IVMA Ca2+-activation curves, collected uncoupled mutant thin filaments. In kind it is biochemical. Particulars: every uncoupling mutation tested; 100 μM EGCG. As for the experimental part: Thin filaments were reconstituted with 10 nM rabbit skeletal or mouse cardiac muscle α-actin (labeled with TRITC phalloidin), tropomyosin (40–60 nM), and troponin (60 nM) to study Ca^2+-regulation of filament motility by the quantitative in vitro motility assay (IVMA) (Fraser and Marston, [1995]; Messer et al., [2007]). Thin filament movement over a bed of immobilized rabbit fast skeletal muscle heavy meromyosin (100 μg/ml) was compared in paired motility cells, in which troponin varied by a single factor (mutation, phosphorylation state, or treatment with drug). The temperature was set to 29°C. Filament movement was recorded and analyzed as previously described (Marston et al., [1996]), yielding two parameters, the fraction of filaments moving and the speed of moving filaments. […]
(§1) The fraction motile was measured over a range of Ca^2+ concentrations to generate Ca^2+-activation curves. […]
We measured the Ca^2+ activation of contractility using an in vitro motility assay that measures the movement of reconstituted thin filaments over a bed of immobilized myosin heads. […] Thus, the effect of EGCG is independent of the mutation that induced uncoupling; in addition, both in man and cat, HCM cases were found where no mutation in sarcomeric genes was detected yet the thin filaments were uncoupled and they could also be re-coupled by EGCG (Bayliss et al., [2012]; Messer et al., [2016]). […]

A further experiment concerns the target T1, wild-type thin filaments (Homo sapiens, UniProt P19429+P45379+P63316).
T1 construct: isolate troponin from 100 mg of donor heart tissue; from tissue; host or cells: troponin: human donor heart; actin: rabbit skeletal muscle
Kind of experiment: IVMA Ca2+-activation curves, wild-type thin filaments. In kind it is biochemical. Particulars: ratio of EC50 in presence and absence of compound, phosphorylated and unphosphorylated states. How it is done: (§2) Thin filaments were reconstituted with 10 nM rabbit skeletal or mouse cardiac muscle α-actin (labeled with TRITC phalloidin), tropomyosin (40–60 nM), and troponin (60 nM) to study Ca^2+-regulation of filament motility by the quantitative in vitro motility assay (IVMA) (Fraser and Marston, [1995]; Messer et al., [2007]). Thin filament movement over a bed of immobilized rabbit fast skeletal muscle heavy meromyosin (100 μg/ml) was compared in paired motility cells, in which troponin varied by a single factor (mutation, phosphorylation state, or treatment with drug). The temperature was set to 29°C. Filament movement was recorded and analyzed as previously described (Marston et al., [1996]), yielding two parameters, the fraction of filaments moving and the speed of moving filaments. Only the fraction of filaments motile is used in this study.
The fraction motile was measured over a range of Ca^2+ concentrations to generate Ca^2+-activation curves. The data were fitted to the 4-variable Hill equation to yield a value for EC50 and nH. Most assays of the effect of compounds are single measurements.
EC50 for Ca2+ activation of phosphorylated and unphosphorylated thin filaments incorporating troponin from HCM and DCM tissue samples that are uncoupled was measured by in vitro motility assay in the presence and absence of 100 µM EGCG. […]

In experiment [2] the target is T2, tropomyosin E180G mutant-containing thin filaments (Homo sapiens, UniProt P19429+P45379+P63316).
T2 construct: isolate troponin from 100 mg of donor heart tissue; from tissue; host or cells: troponin: human donor heart; tropomyosin: baculovirus/Sf9 (gift); actin: rabbit fast-twitch skeletal muscle
The experiment is described as follows: Single [Ca2+] in vitro motility assay screen for re-coupling. In kind it is biochemical. The conditions noted are these: for Coupling Difference (Initial Screen E180G): 100 μM compound, difference between motility (%) in phosphorylated and unphosphorylated thin filaments, TPM1 E180G, >10% = re-coupling; for EC50: dose-response of % motility difference at 0.037 μM Ca2+, Hill fit. How it is done:
as §2
For drug screening, motility was measured with paired phosphorylated and unphosphorylated tropomyosin E180G mutant-containing thin filaments at a fixed 0.037 μM Ca^2+. Most assays were single measurements.
For the rapid screening of compounds, we devised a single Ca^2+ concentration assay. This is illustrated in Figures 2A,B for quercetin. The test system contains skeletal muscle actin, human sequence recombinant tropomyosin 1.1 containing the E180G HCM-associated mutation and human cardiac troponin from donor hearts in the phosphorylated and unphosphorylated form. At 0.037 μM Ca^2+ the filaments are about 40% motile irrespective of phosphorylation level whilst when quercetin is added the phosphorylated Ca^2+ activity curve shifts to the right and % motility at 0.037 μM Ca^2+ drops, whilst the unphosphorylated level is unchanged. We have set a difference between phosphorylated and unphosphorylated >10% as indicating re-coupling activity. This assay method can also be used to construct a dose-response curve as shown. We investigated compounds in 4 categories.
Figure 2 Single [Ca^2+] screen for re-coupling compounds. […] Solid lines, phosphorylated state; dotted lines, unphosphorylated state. Purple lines and points, E180G thin filaments; green lines and points, E180G thin filaments + Quercetin (B) Dose -response curve for quercetin recoupling activity measured at a constant concentration of 0.037 μM Ca^2+. INSET, kinetic analysis of dose response curve; difference between phosphorylated and unphosphorylated states is plotted against quercetin concentration. The Hill equation is fitted to the data, EC50 = 8 μM. (C,D) The effect of 100 μM drug treatment on the difference between % of motility of phosphorylated and unphosphorylated tropomyosin E180G mutant-containing thin filaments at 0.037 μM Ca^2+. (C) EGCG-related molecules (for structures 1–28 see Figure S1 and Table 1). (D) Silybin, related compounds and other HsP90 inhibitors and Ca^2+ desensitizers. The threshold for positive re-coupling was set at a 10% difference (dotted line).

For experiment [3], the system named is isolated cardiomyocytes from ACTC E99K HCM transgenic mice. Kind of experiment: Lusitropic effect of dobutamine in isolated cardiomyocytes. In kind it is cell-based. The conditions noted are these: blunted in ACTC E99K mouse cardiomyocytes; preliminary experiments.
Description: The main effect of uncoupling of the modulation of Ca^2+ sensitivity by TnI phosphorylation is the loss of the lusitropic response to beta adrenergic stimulation, which is usually accompanied by blunting of the whole physiological adrenergic response.
Experiment [4] relates to transgenic HCM mouse model. Also on record: method as in Tadano et al., 2010. Particulars: ref Tadano et al., 2010; cited from earlier work.
The target in experiment [5] is T3, thin filaments containing TnC G159D (TNNC1 G159D, DCM) (Homo sapiens, UniProt P19429+P45379+P63316, G159D).
T3 construct: TnC G159D mutant troponin was extracted from a mutant human heart sample; from tissue; host or cells: mutant human heart sample (troponin); rabbit skeletal muscle (actin)
Kind of experiment: IVMA Ca2+-activation curves, TNNC1 G159D. In kind it is biochemical. The conditions noted are these: phosphorylated and unphosphorylated TnC G159D thin filaments.
Description: Recombinant human sequence tropomyosin was a gift from Kristen Nowak and Elyshia MacNamara, University, Western Australia. Wild-type α-tropomyosin (Tpm1.1) and mutant E180G tropomyosin were expressed in a baculovirus/Sf9 system (Akkari et al., [2002]; Marston et al., [2013]). Skeletal muscle F-actin and myosin were isolated from rabbit fast-twitch skeletal muscle as previously described (Messer et al., [2007]). TnC G159D mutant troponin was extracted from a mutant human heart sample (Dyer et al., [2009]), E99K mutant cardiac actin was extracted from the E99K transgenic mouse heart (Song et al., [2013]).
Thin filaments were reconstituted with 10 nM rabbit skeletal or mouse cardiac muscle α-actin (labeled with TRITC phalloidin), tropomyosin (40–60 nM), and troponin (60 nM) to study Ca^2+-regulation of filament motility by the quantitative in vitro motility assay (IVMA) (Fraser and Marston, [1995]; Messer et al., [2007]). […] Filament movement was recorded and analyzed as previously described (Marston et al., [1996]), yielding two parameters, the fraction of filaments moving and the speed of moving filaments. […]
as §1

Where [6] appears, read: dose response of motile percentage, Figure S2B.

Consider `O=C(O[C@@H]1Cc2c(O)cc(O)cc2O[C@@H]1c1cc(O)c(O)c(O)c1)c1cc(O)c(O)c(O)c1` [EGCG, epigallocatechin-3 gallate], for which the “restoration of coupling in uncoupled thin filaments, in words” value in experiment [1] is reported as “restore the coupling”. Moreover, on wild-type thin filaments, the “effect on Ca2+-sensitivity of wild-type thin filaments, in words” value is on record as “significant desensitizer”. Further, in experiment [2] (0.037 μM Ca2+), the “Coupling Difference (Initial Screen E180G)” value (from here on “Coupling Difference”) came out at 23.0%. Moreover, the midpoint of the response in experiment [2], the EC50, lay at 59 µM. Moreover, in experiment [3], the “lusitropic effect of dobutamine, in words” value is “anomalous”. Moreover, in experiment [4], the “impaired pump function due to diastolic dysfunction, in words” value is on record as “restored the impaired pump function”.
As for `COc1cc([C@H]2Oc3cc([C@H]4Oc5cc(O)cc(O)c5C(=O)[C@@H]4O)ccc3O[C@@H]2CO)ccc1O` [Silybin A], in experiment [2] (0.037 μM Ca2+), the “Coupling Difference” value was 5%. The “re-coupling activity (in words)” value in experiment [2] (E180G thin filaments, 0.037 μM Ca2+) was “complex dose sensitive”. Further, in experiment [5], the “effect on Ca2+-activation curves (desensitizer / re-coupler), in words” value is on record as “pure desensitizer”.
Consider `COc1cc([C@@H]2Oc3cc([C@H]4Oc5cc(O)cc(O)c5C(=O)[C@@H]4O)ccc3O[C@H]2CO)ccc1O` [Silybin B], for which the “Coupling Difference” value in experiment [2] (0.037 μM Ca2+) was found to be 55%. Besides, in experiment [2] (setting [6]), the “dose at which recoupling begins” value turned out to be 50 µM and the “dose of peak recoupling” value was 100 µM. The half-maximal effective concentration (EC50) in experiment [2] amounted to 39 µM. Also, in experiment [3], the “lusitropic effect of dobutamine, in words” value is recorded as “restored”. The “effect on Ca2+-activation curves (desensitizer / re-coupler), in words” value in experiment [5] is “pure recoupler; also recorded: pure recoupling”.

Values taken from article PMC5881522, “Molecular Defects in Cardiac Myofilament Ca^2+-Regulation Due to Cardiomyopathy-Linked Mutations Can Be Reversed by Small Molecules Binding to Troponin” (Frontiers in Physiology, 2018).
